Patent publication US8759481B2, “Peptide vaccines for cancers expressing tumor-associated antigens” (Oncotherapy Science, Inc., priority 2007, dated 2014)
Entries after “also recorded” stand apart in the source; their conditions may differ. Ends that are not written are not given here.

What was measured:
Format in all cases: cell-based, human
PK45P cancer cell line = assay: 51Cr release cytotoxicity assay; details: PK45P expressing both KIF20A and HLA-A24; listed as KIF20A-A24-9-305
Method: (§1) Cytotoxic activity was evaluated by a four-hour ^51Cr release assay. The target cells were pulsed with a 20 micro g/mL concentration of peptide overnight. The target cells were labeled with 100 micro Ci of Na2^51CrO4 at 37 degrees C. for one hour, and then washed three times with RPMI1640. The target cells (1×10^4/100 micro L) and 100 micro L of effector cells at various numbers with a total volume of 200 micro L were placed into a round-bottomed 96-well microtiter plate (Corning), and cultured at 37 degrees C. in a CO2 incubator for four hours. After culturing, 100 micro L of the supernatant was collected from each well, and measured the radioactivity using a gamma counter. Spontaneous release was the radioactivity from the target cells with medium in the absence of effector cells, and maximum release was the radioactivity from the target cells with 1 M HCl.
(§2) The Percentage of specific cytotoxicity was determined by calculating as following formula: % Specific lysis=[(experimental release−spontaneous release)/(maximum release−spontaneous release)]×100. Results Enhanced CDH3, EPHA4, ECT2, HIG2, INHBB, KIF20A, KNTC2, TTK and URLC10 Expression in Cancers
(§3) Furthermore, Cytotoxic activity was examined by cytotoxicity assay according to the protocols set forth in the “Materials and Methods” section above.

PK59 cancer cell line = assay: 51Cr release cytotoxicity assay; details: PK59 expressing KIF20A but not HLA-A24
Method: as §1, §2, §3

[1] = tested on: peptide-pulsed A24-LCL cells; assay: CTL line establishment, IFN-gamma ELISA; details: HLA-A24 peptides; vs target without peptide pulse
Summary of the method: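 CTL lines were expanded with MMC-inactivated B-lymphoblastoid feeders, 40 ng/ml anti-CD3 and IL-2 in AIM-V/5% AS. IFN-gamma ELISPOT identified specific wells, and ELISA determined established lines, using responders stimulated by peptide-pulsed A24-LCL or T2 cells at 1×10^4/well.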

[2] = tested on: peptide-pulsed A24-LCL cells; assay: CTL clones by limiting dilution, specific CTL activity; details: HLA-A24 peptides; vs target without peptide pulse
Summary of the method: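 CTLs cloned by limiting dilution at 0.3, 1 and 3 cells/well with two B-lymphoblastoid lines, 30 ng/ml anti-CD3 and 125 U/ml IL-2, IL-2 re-added at day 10; activity tested day 14. Responders stimulated by peptide-pulsed A24-LCL or T2 cells (1×10^4/well); IFN-gamma read by ELISPOT and ELISA.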

[3] = tested on: peptide-pulsed A24-LCL cells; assay: IFN-gamma ELISPOT assay (positive wells); details: HLA-A24 peptides; as compared to the control
Summary of the method: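 PBMC-derived DCs from HLA-A*2402 and/or A*0201 donors, pulsed with 20 micro g/ml peptide plus 3 micro g/ml beta 2-microglobulin, stimulated autologous CD8+ T cells three times (days 0, 7, 14). On day 21, responders were tested against peptide-pulsed A24-LCL or T2 cells by IFN-gamma ELISPOT. Values are reported as positive wells/wells tested; CTL lines confirmed by ELISA.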

[4] = tested on: HEK293 transfected with full length KNTC2 gene and HLA-A*2402; assay: Specific CTL activity against transfected target cells; details: vs control transfectants; listed as KNTC2-A24-10-452
Method: (§4) Briefly, peptide-pulsed A24-LCL or T2 cell (1×10^4/well) was prepared as stimulator cells. Cultured Cells in 48 wells or CTL clones after limiting dilution were used as responder cells. IFN-gamma ELISPOT assay and ELISA assay were performed under manufacture procedure.
(§5) The cDNA encoding an open reading frame of target genes or HLA-A02 or HLA-A24 was amplified by PCR. The PCR-amplified product was cloned into pcDNA3.1 myc-His vector (Invitrogen). The plasmids were transfected into the target cells, HLA-A02 and HLA-A24-null normal human cell line COS7 or 293T using lipofectamine (Invitrogen) according to the manufacturer's recommended procedures. Alternatively, the plasmid contained the target genes were transfected into A24-LCL by electroporation using GenePulserII (Biorad). Briefly, 2.5×10^6 A24-LCL cells were pulsed with 10 mcg prasmid at 140V and 1000 micro F. After 2 days from transfection, the transfected cells were treated with Cell dissociation solution and used as the target cells for CTL activity assay.
The established CTL line raised against these peptides were examined for their ability to recognize the target cells expressing KNTC2 and HLA-A*2402. […] HEK293 transfected with full length KNTC2 but not HLA-A*2402, HEK293 transfected with HLA-A*2402 but not full length KNTC2 and HEK293 transfected with HLA-A*2402 and pulsed with KNTC2-9-309 were prepared as controls.

[5] = tested on: COS7, Hek293 and 293T transfected with full length URLC10 gene and HLA-A*0201; assay: as above; details: vs control transfectants; listed as URLC10-A02-10-211
Method: as §4, §5
The established CTL line raised against these peptides were examined for their ability to recognize the target cells endogenously expressing URLC10 and HLA-A*0201. […]

peptide-pulsed T2 cells [6] = assay: IFN-gamma ELISPOT assay (positive wells); details: HLA-A02 peptides; as compared to the control
Summary of the method: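 CD8+ T cells from HLA-A*2402 and/or HLA-A*0201 donors were stimulated 1:20 with autologous monocyte-derived DCs pulsed with 20 µg/ml peptide plus β2-microglobulin, in IL-7, with IL-2 added, restimulated on days 7 and 14. On day 21, IFN-γ ELISPOT against peptide-pulsed T2 or A24-LCL cells (1×10^4/well) scored wells as positive, with CTL lines confirmed by ELISA.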

peptide-pulsed T2 cells [7] = assay: CTL line establishment, IFN-gamma ELISA; details: HLA-A02 peptides; vs target without peptide pulse
Summary of the method: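 CTLs expanded with MMC-inactivated B-lymphoblastoid lines, 40 ng/ml anti-CD3 and IL-2 (120 IU/ml day 1, then 30 IU/ml on days 5, 8, 11). Peptide-pulsed T2 or A24-LCL stimulators (1×10^4/well) incubated with cultured wells or limiting-dilution clones as responders; IFN-gamma detected by ELISPOT (positive wells) and ELISA (established CTL lines).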

TE5 cancer cell line = assay: 51Cr release cytotoxicity assay; details: TE5 expressing only ECT2
Method: as §1, §2, §3

TE6 cancer cell line = assay: 51Cr release cytotoxicity assay; details: TE6 endogenously expressing ECT2 and HLA-A24; listed as ECT2-A24-9-515
Method: as §1, §2, §3

[8] = tested on: 293T transfected with HIG2 gene and/or HLA-A02; assay: 51Cr release cytotoxicity assay
Description: as §5
Cytotoxic activity was evaluated by a four-hour ^51Cr release assay. […] After culturing, 100 micro L of the supernatant was collected from each well, and measured the radioactivity using a gamma counter. Spontaneous release was the radioactivity from the target cells with medium in the absence of effector cells, and maximum release was the radioactivity from the target cells with 1 M HCl.
The Percentage of specific cytotoxicity was determined by calculating as following formula: % Specific lysis=[(experimental release−spontaneous release)/(maximum release−spontaneous release)]×100. […]

A498 cancer cell line = assay: 51Cr release cytotoxicity assay; details: A498 expressing only HIG2
Method: as §1, §2, §3

Caki-1 cancer cell line = assay: 51Cr release cytotoxicity assay; details: Caki-1 endogenously expressing HIG2 and HLA-A02; listed as HIG2-A02-9-4
Method: as §1, §2, §3

For FFEIYNELL [SEQ ID NO: 174], the “Cytotoxic activity against PK45P (Cr-release assay)” value (PK45P cancer cell line) was “remarkably high cytotoxic effect; also recorded: very potent cytotoxic activity” and the “Cytotoxic activity against PK59 (Cr-release assay)” value (PK59 cancer cell line) was “did not show significant specific cytotoxic activity”.

“SEQ ID NO: 214: HLA-A*2402 binding 10-mer peptide derived from KNTC2 (KYRAQVYVPL)” was tested, and the “Establishment of CTL line, specific CTL activity against the peptide-pulsed target determined by ELISA” value [1] was “CTL lines were established”, the “CTL activities of CTL clones against the peptide-pulsed target” value [2] was “potent and specific CTL activities” and the “IFN-gamma production by IFN-gamma ELISPOT assay” value [3] was “potent IFN-gamma production”. For the same substance, the “Specific CTL activity against HEK293 transfected with both KNTC2 and HLA-A24” value [4] was “highest specific CTL activity”.

“SEQ ID NO: 288: HLA-A*0201 binding 10-mer peptide derived from URLC10 (LLLASIAAGL)” was tested, and the “Specific CTL activity against COS7, Hek293 and 293T transfected with both URLC10 and HLA-A02” value [5] was “highest specific CTL activity; also recorded: high specific CTL activity”, the “IFN-gamma production by IFN-gamma ELISPOT assay” value (peptide-pulsed T2 cells [6]) was “potent IFN-gamma production” and the “Establishment of CTL line, specific CTL activity against the peptide-pulsed target determined by ELISA” value (peptide-pulsed T2 cells [7]) was “CTL line and clones, were established”.

In the case of TYPPFVNFF [SEQ ID NO: 80, TYPPFVNFF], the “Cytotoxic activity against TE5 (Cr-release assay)” value (TE5 cancer cell line) is reported as “did not demonstrate the cytotoxic activity” and the “Cytotoxic activity against TE6 (Cr-release assay)” value (TE6 cancer cell line) is reported as “remarkably high cytotoxic effect; also recorded: very potent cytotoxic activity”.

With VLNLYLLGV [SEQ ID NO: 117, VLNLYLLGV] the “Cytotoxic activity against 293T transfected with both HIG2 gene and HLA-A02 (Cr-release assay)” value [8] was “very potent cytotoxic activity”, the “Cytotoxic activity against 293T transfected only HIG2 or only HLA-A02 (Cr-release assay)” value ([8]; control transfectants) was “did not demonstrate the cytotoxic activity” and the “Cytotoxic activity against A498 (Cr-release assay)” value (A498 cancer cell line) was “did not demonstrate the cytotoxic activity”. For the same substance, the “Cytotoxic activity against Caki-1 (Cr-release assay)” value (Caki-1 cancer cell line) was “remarkably high cytotoxic effect; also recorded: very potent cytotoxic activity”.
